For 30 compounds, IC50 and Ki results are on record in patent US10793563B2, “GCN2 inhibitors and uses thereof” (Merck Patent GmbH, priority 2018, dated 2020).

GCN2 kinase, sequence (Q9P2K8 whole entry): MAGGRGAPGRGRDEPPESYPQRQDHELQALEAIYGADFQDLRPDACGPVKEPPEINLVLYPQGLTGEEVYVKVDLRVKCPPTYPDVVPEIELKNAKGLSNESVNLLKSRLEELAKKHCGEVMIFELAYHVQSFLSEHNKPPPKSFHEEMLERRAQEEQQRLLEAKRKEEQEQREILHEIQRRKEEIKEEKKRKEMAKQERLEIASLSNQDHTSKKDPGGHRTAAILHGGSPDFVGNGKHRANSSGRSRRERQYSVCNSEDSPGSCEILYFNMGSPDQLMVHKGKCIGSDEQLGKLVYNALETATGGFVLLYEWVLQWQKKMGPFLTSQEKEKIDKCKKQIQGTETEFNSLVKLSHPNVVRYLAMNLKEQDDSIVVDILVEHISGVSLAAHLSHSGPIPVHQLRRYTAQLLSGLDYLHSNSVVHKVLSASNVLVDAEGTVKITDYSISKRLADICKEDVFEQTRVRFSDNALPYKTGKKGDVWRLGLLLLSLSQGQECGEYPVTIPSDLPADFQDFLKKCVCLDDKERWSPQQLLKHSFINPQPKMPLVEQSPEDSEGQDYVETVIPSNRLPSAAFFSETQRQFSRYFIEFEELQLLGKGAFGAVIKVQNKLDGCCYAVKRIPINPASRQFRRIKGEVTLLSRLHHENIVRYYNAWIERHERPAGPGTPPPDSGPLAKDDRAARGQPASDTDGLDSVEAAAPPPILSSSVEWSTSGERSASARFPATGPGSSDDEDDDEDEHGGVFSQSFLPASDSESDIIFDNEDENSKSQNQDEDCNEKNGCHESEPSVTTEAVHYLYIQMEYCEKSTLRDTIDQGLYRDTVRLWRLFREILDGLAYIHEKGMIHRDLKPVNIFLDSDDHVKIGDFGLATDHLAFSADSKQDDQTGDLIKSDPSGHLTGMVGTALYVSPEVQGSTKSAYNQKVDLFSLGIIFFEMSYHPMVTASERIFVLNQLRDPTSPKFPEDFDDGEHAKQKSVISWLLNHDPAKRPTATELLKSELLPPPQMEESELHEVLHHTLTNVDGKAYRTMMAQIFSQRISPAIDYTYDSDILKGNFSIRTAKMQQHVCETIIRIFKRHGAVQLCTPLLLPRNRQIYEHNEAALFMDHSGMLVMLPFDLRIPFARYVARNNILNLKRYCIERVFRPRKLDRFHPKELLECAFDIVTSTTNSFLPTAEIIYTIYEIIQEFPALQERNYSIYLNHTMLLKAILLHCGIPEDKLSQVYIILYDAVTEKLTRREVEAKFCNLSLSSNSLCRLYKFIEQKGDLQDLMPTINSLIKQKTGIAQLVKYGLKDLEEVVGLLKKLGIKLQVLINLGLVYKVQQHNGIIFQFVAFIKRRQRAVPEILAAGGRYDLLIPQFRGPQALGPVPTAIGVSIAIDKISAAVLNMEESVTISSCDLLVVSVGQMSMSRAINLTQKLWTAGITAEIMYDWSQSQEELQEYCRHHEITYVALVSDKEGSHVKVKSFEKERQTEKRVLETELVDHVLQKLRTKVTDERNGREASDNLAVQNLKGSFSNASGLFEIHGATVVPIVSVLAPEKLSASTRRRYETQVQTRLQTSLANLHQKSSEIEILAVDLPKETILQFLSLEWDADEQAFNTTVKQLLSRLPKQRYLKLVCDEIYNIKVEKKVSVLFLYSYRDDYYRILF

The first assay addresses GCN2 kinase (Homo sapiens (Human), UniProt Q9P2K8). The experiment in a line: GCN2 Enzyme Inhibition Assay (Transcreener ADP2 fluorescence polarization). It counts as biochemical. Particulars: 280 μM ATP, 200 μM (RS)7 peptide, 4 nM GCN2, 25° C. Here is the method: Compounds were screened for their ability to inhibit GCN2 kinase activity using a Transcreener® ADP^2 fluorescence polarization assay that detects ADP levels (BellBrook Labs, WI). Assays were carried out in a buffer consisting of 25 mM Tris-HCl (pH 7.5), 50 mM NaCl, 10 mM MgCl2 and 1 mM DTT. […] Assays were carried out at 25° C. in the presence of a (typical) final concentration of 4 nM GCN2 kinase. An assay buffer containing GCN2 kinase and (RS)7 was prepared. […] The plate was incubated for 10 minutes at 25° C. prior to the addition of 4.7 μL of ATP stock buffer to initiate the enzyme reaction. The reaction was allowed to proceed for 1 hour at 25° C., prior to the addition of 10 μL detection buffer (consisting of appropriate concentrations of ADP^2 antibody and ADP Alexa633 tracer in 1× stop and detect buffer as supplied by BellBrook Labs). […] Percentage inhibition of enzyme activity was then calculated at each compound dose. IC50 and Ki(app) (using known assay and kinetic parameters) values were calculated from percentage inhibition data using a non-linear, tight-binding algorithm. All data analysis was undertaken using the Screener® software package (Genedata, Switzerland).
(In general: Polarisation of emitted light reports the rotation of a fluorescent probe.)
For orientation: IC50 means the concentration that inhibits the measured activity by half. As for `CN(C)C(=O)COCC1CN(c2ccnc(-c3cnc4ccc(C(F)(F)F)cn34)n2)CC(C)(C)O1` (stereo not drawn) [I-305, 2-((6,6-dimethyl-4-(2-(6-(trifluoromethyl)imidazo[1,2-a]pyridin-3-yl)pyrimidin-4-yl)morpholin-2-yl)methoxy)-N,N-dimethylacetamide], the IC50 was in the range of 100 to 1000 nM.
The same measure, in the same setting: next, `CC1CN(c2ccnc(-c3cnc4ccc(Cl)cn34)n2)C(C)C(c2cn[nH]c2)N1` (stereo not drawn) [I-122, 6-Chloro-3-(4-(2,5-dimethyl-3-(1H-pyrazol-4-yl)piperazin-1-yl)pyrimidin-2-yl)imidazo[1,2-a]pyridine]: under 10 nM.
`NC(=O)[C@H]1CN(c2ccnc(-c3cnc4ccc(C(F)(F)F)cn34)n2)CCO1` [I-151, (R)-4-(2-(6-(trifluoromethyl)imidazo[1,2-a]pyridin-3-yl)pyrimidin-4-yl)morpholine-2-carboxamide] registered an IC50 of 100 to 1000 nM.
Still for that read-out and setting: the result for `C[C@@H]1CN(c2ccnc(-c3cnc4ccc(C(F)(F)F)cn34)n2)C[C@H](C)N1CC(F)(F)F` [I-410, 3-(4-(cis-3,5-dimethyl-4-(2,2,2-trifluoroethyl)piperazin-1-yl)pyrimidin-2-yl)-6-(trifluoromethyl)imidazo[1,2-a]pyridine] reads 100 to 1000 nM; that for `Cc1nn(C)cc1[C@H]1C[C@H](C)CN(c2nccc(-c3cnc4ccc(C(F)(F)F)cn34)n2)C1` [I-139, 3-(2-((3R,5S)-3-(1,3-dimethyl-1H-pyrazol-4-yl)-5-methylpiperidin-1-yl)pyrimidin-4-yl)-6-(trifluoromethyl)imidazo[1,2-a]pyridine], 100 to 1000 nM; that for `N#CC1(C(=O)N2CCN(c3nccc(-c4cnc5ccc(C(F)(F)F)cn45)n3)C[C@@H]2c2cn[nH]c2)CC1` (stereo in doubt) [I-551, 1-(2-(1H-pyrazol-4-yl)-4-(4-(6-(trifluoromethyl)imidazo[1,2-a]pyridin-3-yl)pyrimidin-2-yl)piperazine-1-carbonyl)cyclopropane-1-carbonitrile], 10 to 100 nM.
Still for that read-out and setting: the result for `Fc1ccccc1CN1CCN(c2ccnc(-c3cnc4ccc(C(F)(F)F)cn34)n2)CC1c1cn[nH]c1` (stereo not drawn) [I-459, 3-(4-(4-(2-fluorobenzyl)-3-(1H-pyrazol-4-yl)piperazin-1-yl)pyrimidin-2-yl)-6-(trifluoromethyl)imidazo[1,2-a]pyridine] reads under 10 nM; that for `CS(=O)(=O)NCC1NCCN(c2ccnc(-c3cnc4ccc(C(F)F)cn34)n2)C1C(F)(F)F` (stereo not drawn) [I-496, N-((4-(2-(6-(difluoromethyl)imidazo[1,2-a]pyridin-3-yl)pyrimidin-4-yl)-3-(trifluoromethyl)piperazin-2-yl)methyl)methanesulfonamide], 100 to 1000 nM; that for `NC(=O)[C@@H]1CCCN(c2ccnc(-c3cnc4ccc(Cl)cn34)n2)C1` [I-164, (R)-1-(2-(6-chloroimidazo[1,2-a]pyridin-3-yl)pyrimidin-4-yl)piperidine-3-carboxamide], 10 to 100 nM.
On the same count and under the same terms, next, `CC1C(C(N)=O)NCCN1c1ccnc(-c2cnc3cc(F)c(C4CC4)cn23)n1` (stereo not drawn) [I-455, 4-(2-(6-cyclopropyl-7-fluoroimidazo[1,2-a]pyridin-3-yl)pyrimidin-4-yl)-3-methylpiperazine-2-carboxamide]: 10 to 100 nM; `NC(=O)C1CN(c2ccnc(-c3cnc4ccc(C(F)(F)F)cn34)n2)C1` [I-228, 1-(2-(6-(trifluoromethyl)imidazo[1,2-a]pyridin-3-yl)pyrimidin-4-yl)azetidine-3-carboxamide]: 100 to 1000 nM; `Cc1nn(C)cc1[C@H]1C[C@@H](C)CN(c2nccc(-c3cnc4ccc(C(F)(F)F)cn34)n2)C1` [I-142, 3-(2-((3R,5R)-3-(1,3-dimethyl-1H-pyrazol-4-yl)-5-methylpiperidin-1-yl)pyrimidin-4-yl)-6-(trifluoromethyl)imidazo[1,2-a]pyridine]: 100 to 1000 nM.
As for `CC(C)(O)C(=O)N1CCN(c2ccnc(-c3cnc4ccc(C(F)(F)F)cn34)n2)CC1c1cn[nH]c1` (stereo not drawn) [I-514, 1-(2-(1H-pyrazol-4-yl)-4-(2-(6-(trifluoromethyl)imidazo[1,2-a]pyridin-3-yl)pyrimidin-4-yl)piperazin-1-yl)-2-hydroxy-2-methylpropan-1-one], the IC50 was 100 to 1000 nM.
Same read-out and setting: next, `Cc1oncc1C(=O)N1CCN(c2ccnc(-c3cnc4ccc(C(F)(F)F)cn34)n2)C[C@H]1c1cn[nH]c1` [I-550, (R)-(2-(1H-pyrazol-4-yl)-4-(2-(6-(trifluoromethyl)imidazo[1,2-a]pyridin-3-yl)pyrimidin-4-yl)piperazin-1-yl)(5-methylisoxazol-4-yl)methanone]: 100 to 1000 nM; `O=C(C1CCCN(c2ccnc(-c3cnc4ccc(C(F)(F)F)cn34)n2)C1)N1CCCC1` (stereo not drawn) [I-131, pyrrolidin-1-yl(1-(2-(6-(trifluoromethyl)imidazo[1,2-a]pyridin-3-yl)pyrimidin-4-yl)piperidin-3-yl)methanone]: 100 to 1000 nM.
`CS(=O)(=O)NCC1C[C@@H]2CC[C@H]1N(c1ccnc(-c3cnc4ccc(C(F)F)cn34)n1)C2` (stereo partly drawn) [I-394, N-(((1R,4S)-2-(2-(6-(difluoromethyl)imidazo[1,2-a]pyridin-3-yl)pyrimidin-4-yl)-2-azabicyclo[2.2.2]octan-6-yl)methyl)methanesulfonamide] gave an IC50 of 100 to 1000 nM.
Same read-out and setting: the result for `NC(=O)C1CCCN(c2nc(-c3cnc4ccc(C(F)(F)F)cn34)ncc2F)C1` (stereo in doubt) [I-282, (S)-1-(5-fluoro-2-(6-(trifluoromethyl)imidazo[1,2-a]pyridin-3-yl)pyrimidin-4-yl)piperidine-3-carboxamide] reads 100 to 1000 nM; that for `O=C(C1CC12CC2)N1CCN(c2ccnc(-c3cnc4ccc(C(F)(F)F)cn34)n2)CC1c1cn[nH]c1` (stereo not drawn) [I-468, (2-(1H-pyrazol-4-yl)-4-(2-(6-(trifluoromethyl)imidazo[1,2-a]pyridin-3-yl)pyrimidin-4-yl)piperazin-1-yl)(spiro[2.2]pentan-1-yl)methanone], 100 to 1000 nM.
The same measure, in the same setting: the result for `NC(=O)[C@@H]1CN(c2ccnc(-c3cnc4ccc(Cl)cn34)n2)CCN1C1CC1` [I-350, (s)-4-(2-(6-chloroimidazo[1,2-a]pyridin-3-yl)pyrimidin-4-yl)-1-cyclopropylpiperazine-2-carboxamide] reads 100 to 1000 nM.
On the same count and under the same terms, the result for `Cc1[nH]ncc1[C@@H]1CN(c2ccnc(-c3cnc4cc(F)c(C5CC5)cn34)n2)C[C@H](C)O1` [I-429, (2S,6R)-4-(2-(6-cyclopropyl-7-fluoroimidazo[1,2-a]pyridin-3-yl)pyrimidin-4-yl)-2-methyl-6-(5-methyl-1H-pyrazol-4-yl)morpholine] reads under 10 nM; that for `Cc1[nH]ncc1[C@H]1[C@H](C)N(c2ccnc(-c3cnc4ccc(C(F)(F)F)cn34)n2)CCN1C1COC1` [I-367], 100 to 1000 nM.
On to `CC1C(C(N)=O)NCCN1c1ccnc(-c2cnc3ccc(C(F)F)cn23)n1` (stereo not drawn) [I-378, 4-(2-(6-(difluoromethyl)imidazo[1,2-a]pyridin-3-yl)pyrimidin-4-yl)-3-methylpiperazine-2-carboxamide], for which the IC50 lay in the range of 10 to 100 nM.
Still for that read-out and setting: the result for `O=C([C@H]1C[C@H]1F)N1CCN(c2ccnc(-c3cnc4ccc(C(F)(F)F)cn34)n2)CC1c1cn[nH]c1` (stereo in doubt) [I-489, (2-(1H-pyrazol-4-yl)-4-(2-(6-(trifluoromethyl)imidazo[1,2-a]pyridin-3-yl)pyrimidin-4-yl)piperazin-1-yl)((1R,2R)-2-fluorocyclopropyl)methanone] reads 10 to 100 nM; that for `C[C@H]1CN(c2nccc(-c3cnc4ccc(C(F)(F)F)cn34)n2)C[C@@H](c2nn[nH]n2)O1` [I-189, (2S,6S)-2-methyl-6-(2H-tetrazol-5-yl)-4-(4-(6-(trifluoromethyl)imidazo[1,2-a]pyridin-3-yl)pyrimidin-2-yl)morpholine], 10 to 100 nM; that for `Cc1nn(C)cc1C(=O)N1CCN(c2ccnc(-c3cnc4ccc(C(F)(F)F)cn34)n2)C[C@@H]1C` [I-480, (S)-(1,3-dimethyl-1H-pyrazol-4-yl)(2-methyl-4-(2-(6-(trifluoromethyl)imidazo[1,2-a]pyridin-3-yl)pyrimidin-4-yl)piperazin-1-yl)methanone], 100 to 1000 nM.

The assay is the same for the next values; noted with them: Ki(app); 280 μM ATP, 200 μM (RS)7 peptide, 4 nM GCN2, 25° C.
The compound `O=C1OCC2CN(c3ccnc(-c4cnc5ccc(Cl)cn45)n3)CCN12` (stereo not drawn) [I-99, 7-(2-{6-chloroimidazo[1,2-a]pyridin-3-yl}pyrimidin-4-yl)-hexahydro-1H-[1,3]oxazolo[3,4-a]pyrazin-3-one] came in with a Ki of 10 to 100 nM.
Consider `CS(=O)(=O)N1CCC2(CCCN2c2ccnc(-c3cnc4ccc(C(F)(F)F)cn34)n2)CC1` [I-7, 8-Methylsulfonyl-1-[2-[6-(trifluoromethyl)imidazo[1,2-a]pyridin-3-yl]pyrimidin-4-yl]-1,8-diazaspiro[4.5]decane], for which the Ki was in the range of 100 to 1000 nM.
In turn, `Clc1ccc2ncc(-c3nccc(N4CCCC(c5cn[nH]c5)C4)n3)n2c1` (stereo not drawn) [I-100, 2-{6-chloroimidazo[1,2-a]pyridin-3-yl}-4-[3-(1H-pyrazol-4-yl)piperidin-1-yl]pyrimidine] returned a Ki of under 10 nM.
The same measure, in the same setting: next, `O=C1NCCC2CN(c3ccnc(-c4cnc5ccc(Cl)cn45)n3)CCN12` (stereo not drawn) [I-96, 2-(2-{6-chloroimidazo[1,2-a]pyridin-3-yl}pyrimidin-4-yl)-octahydro-1H-pyrazino[1,2-c]pyrimidin-6-one]: under 10 nM; `N[C@H]1CCCN(c2ccnc(-c3cnc4ccc(Cl)cn34)n2)C1` [I-87, (3S)-1-(2-{6-chloroimidazo[1,2-a]pyridine-3-yl}pyrimidin-4-yl)piperidin-3-amine]: 100 to 1000 nM.
